According to PubChem BioAssay (NCI):
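The compound was tested at five concentrations on cells cultured in 96-well plates, with a 48-hour exposure period. GI50: concentration for 50% inhibition of growth. TGI marks complete inhibition of growth.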

What was measured:
Assay in all cases: NCI anticancer screen, dose series, 48 h
SK-MEL-28 melanoma = test system: SK-MEL-28 melanoma
HT29 colon = test system: HT29 colon
K-562 leukemia = test system: K-562 leukemia
MCF7 breast = test system: MCF7 breast
SN12C renal = test system: SN12C renal
HS 578T breast = test system: HS 578T breast
SF-295 CNS = test system: SF-295 CNS
UACC-257 melanoma = test system: UACC-257 melanoma
HCC-2998 colon = test system: HCC-2998 colon
T-47D breast = test system: T-47D breast

SMILES: COc1cc(NS(C)(=O)=O)ccc1Nc1c2ccc(Cl)cc2nc2c(OC)cccc12
- GI50 (SK-MEL-28 melanoma): 1.96 µM
- TGI (SK-MEL-28 melanoma): 18 µM
- GI50 (HT29 colon): 0.142 µM
- TGI (HT29 colon): 1.85 µM
- GI50 (K-562 leukemia): 0.425 µM
- TGI (K-562 leukemia): > 100 µM
- GI50 (MCF7 breast): < 0.0161 µM
- TGI (MCF7 breast): 13.2 µM
- GI50 (SN12C renal): 0.0628 µM
- TGI (SN12C renal): 3.53 µM
- GI50 (HS 578T breast): 4.47 µM
- TGI (HS 578T breast): 73.7 µM
- GI50 (SF-295 CNS): 0.0356 µM
- TGI (SF-295 CNS): 1.11 µM
- GI50 (UACC-257 melanoma): 0.698 µM
- TGI (UACC-257 melanoma): 4.07 µM
- GI50 (HCC-2998 colon): 0.826 µM
- TGI (HCC-2998 colon): 5.23 µM
- GI50 (T-47D breast): 0.0826 µM
- TGI (T-47D breast): 3.37 µM

SMILES: O=c1c2cccc(Cl)c2sc2c(NCCCNCCO)nc3ccccc3c12
- GI50 (SK-MEL-28 melanoma): 1.85 µM
- TGI (SK-MEL-28 melanoma): 3.54 µM
- GI50 (HT29 colon): 1.68 µM
- TGI (HT29 colon): 3.37 µM
- GI50 (K-562 leukemia): 1.81 µM
- TGI (K-562 leukemia): 4.03 µM
- GI50 (MCF7 breast): 1.13 µM
- TGI (MCF7 breast): 2.66 µM
- GI50 (SN12C renal): 2.62 µM
- TGI (SN12C renal): 14 µM
- GI50 (HS 578T breast): 2.95 µM
- TGI (HS 578T breast): 14.8 µM
- GI50 (SF-295 CNS): 6.29 µM
- TGI (SF-295 CNS): 20.2 µM
- GI50 (UACC-257 melanoma): 10.4 µM
- TGI (UACC-257 melanoma): 28 µM
- GI50 (HCC-2998 colon): 1.62 µM
- TGI (HCC-2998 colon): 3.02 µM
- GI50 (T-47D breast): 2.2 µM
- TGI (T-47D breast): 23 µM

SMILES: CC[C@@H](C(=O)[C@@H](C)[C@@H](O)[C@H](C)[C@@H]1O[C@@H]([C@@H](CC)C(=O)O)CC[C@@H]1C)C1O[C@]2(C=CC(=O)[C@]3(CC[C@@](C)([C@H]4CC[C@](O)(CC)[C@H](C)O4)O3)O2)[C@H](C)C[C@@H]1C (stereo not given in full)
- GI50 (SK-MEL-28 melanoma): 1.26 µM
- TGI (SK-MEL-28 melanoma): 2.53 µM
- GI50 (HT29 colon): 0.279 µM
- TGI (HT29 colon): 16.2 µM
- GI50 (K-562 leukemia): 0.371 µM
- TGI (K-562 leukemia): > 27.4 µM
- GI50 (MCF7 breast): 0.0669 µM
- TGI (MCF7 breast): 12.8 µM
- GI50 (SN12C renal): 0.179 µM
- TGI (SN12C renal): 15 µM
- GI50 (HS 578T breast): 0.183 µM
- TGI (HS 578T breast): 14.9 µM
- GI50 (SF-295 CNS): 1.21 µM
- TGI (SF-295 CNS): 12.8 µM
- GI50 (UACC-257 melanoma): 0.169 µM
- TGI (UACC-257 melanoma): 16.7 µM
- GI50 (HCC-2998 colon): 0.152 µM
- TGI (HCC-2998 colon): 12.6 µM
- GI50 (T-47D breast): 0.0596 µM
- TGI (T-47D breast): 17.3 µM

SMILES: CCN(CC)CCCC(C)Nc1cnc(C(=O)Nc2ccc(Cl)c3cccnc23)cn1 (stereo not given)
- GI50 (SK-MEL-28 melanoma): 1.79 µM
- TGI (SK-MEL-28 melanoma): 3.28 µM
- GI50 (HT29 colon): 1.33 µM
- TGI (HT29 colon): 3.26 µM
- GI50 (K-562 leukemia): 1.05 µM
- TGI (K-562 leukemia): 3.71 µM
- GI50 (MCF7 breast): 1.68 µM
- TGI (MCF7 breast): 4.39 µM
- GI50 (SN12C renal): 2.19 µM
- TGI (SN12C renal): 5.53 µM
- GI50 (HS 578T breast): 3.06 µM
- TGI (HS 578T breast): 13 µM
- GI50 (SF-295 CNS): 2.11 µM
- TGI (SF-295 CNS): 4.92 µM
- GI50 (UACC-257 melanoma): 2.91 µM
- TGI (UACC-257 melanoma): 7.96 µM
- GI50 (HCC-2998 colon): 1.5 µM
- TGI (HCC-2998 colon): 3.08 µM
- GI50 (T-47D breast): 1.21 µM
- TGI (T-47D breast): 2.97 µM

SMILES: C/C=C(\C)C(=O)N[C@H]1CC[C@]2(C)C3CC[C@@]4(C)C(CC[C@@H]4C(C)N(C)C)C3CCC2[C@H]1OC(C)=O (stereo not given in full)
- GI50 (SK-MEL-28 melanoma): 1.59 µM
- TGI (SK-MEL-28 melanoma): 3.24 µM
- GI50 (HT29 colon): 0.362 µM
- TGI (HT29 colon): 1.34 µM
- GI50 (K-562 leukemia): 0.524 µM
- TGI (K-562 leukemia): 2.17 µM
- GI50 (MCF7 breast): 1.27 µM
- TGI (MCF7 breast): 2.92 µM
- GI50 (SN12C renal): 1.7 µM
- TGI (SN12C renal): 4.26 µM
- GI50 (HS 578T breast): 1.75 µM
- TGI (HS 578T breast): 4.7 µM
- GI50 (SF-295 CNS): 1.88 µM
- TGI (SF-295 CNS): 4.05 µM
- GI50 (UACC-257 melanoma): 2.12 µM
- TGI (UACC-257 melanoma): 4.16 µM
- GI50 (HCC-2998 colon): 1.56 µM
- TGI (HCC-2998 colon): 2.97 µM
- GI50 (T-47D breast): 1.74 µM
- TGI (T-47D breast): 5.42 µM

SMILES: Cc1nn(-c2nc3ccccc3s2)c(C)c1Oc1ccccc1O
- GI50 (SK-MEL-28 melanoma): 10.2 µM
- TGI (SK-MEL-28 melanoma): 21.8 µM
- GI50 (HT29 colon): 4.95 µM
- TGI (HT29 colon): 20.3 µM
- GI50 (K-562 leukemia): 1.94 µM
- TGI (K-562 leukemia): 19.4 µM
- GI50 (MCF7 breast): 4.19 µM
- TGI (MCF7 breast): 24.6 µM
- GI50 (SN12C renal): 6.92 µM
- TGI (SN12C renal): 22 µM
- GI50 (HS 578T breast): 10.3 µM
- TGI (HS 578T breast): 25.2 µM
- GI50 (SF-295 CNS): 3.2 µM
- TGI (SF-295 CNS): 17.2 µM
- GI50 (UACC-257 melanoma): 3.64 µM
- TGI (UACC-257 melanoma): 14.7 µM
- GI50 (HCC-2998 colon): 5.73 µM
- TGI (HCC-2998 colon): 18.9 µM
- GI50 (T-47D breast): 8.63 µM
- TGI (T-47D breast): 34.4 µM
